Measurements reported in patent publication US20100160443A1, “COMPOUNDS USEFUL FOR TREATING NEUROLOGICAL DISORDERS” (Yissum Research Development Company of The Hebrew …, priority 2003, published 2010).
“Also recorded” adds a separate entry of the source.

Tests used:
[1] = system: tactile allodynia in rats with SNL neuropathy; assay: Tactile allodynia (von Frey filaments) in the spinal nerve ligation (SNL) model of neuropathic pain; format: in vivo, rat
Protocol: The effect on neuropathic pain (tactile allodynia) was measured 5-6 days following operation as disclosed above. Rats responding to mechanical stimuli of 10 g or less (in the operated leg) were eligible for the study and were included in the drug administration regime.
Briefly, under ketamine-xylazine anesthesia the rat was placed in a prone position and the left paraspinal muscles were separated from spinous processes at the L4-S2 level. Part of the L6 transverse process was removed and the L4-L6 spinal nerves were identified. The L5-L6 spinal nerves were isolated and tightly ligated and cut, distal to the dorsal root ganglion and proximal to the formation of the sciatic nerve. Following complete homeostasis the wound was sutured.
A volume of 4 ml/kg (volume of injected suspension/rat body weight) was then injected to the rats. […] The three drugs and the control vehicle were administered i.p. (intraperitoneally) to rats at postoperative days 7, 14 and 21 in a double blind randomized crossover manner.
The rat was placed on a metal mesh floor covered with a transparent plastic dome, a period of acclimatization was allowed prior to testing. VFFs were applied from underneath the mesh floor to the plantar surface of the foot. Each trial consisted of repeated applications of each of the VFFs in an ascending order for 5 times, each for a period of 1 second. testing between two consecutive ascending VFFs was separated by period of 2 min. If the rat withdrew the foot at least 3 times out of 5 at a specific VFF no further ascending filaments were tested and this filament was considered as a withdrawal threshold (response). Mechanical stimulus trials with the series of ascending VFF were repeated 2 times for a given time point. The repeated measurements were averaged and taken as the paw withdrawal threshold on a given time point.
The absolute threshold and the difference in the allodynic threshold (time point minus baseline) values were tested using Mann-Whitney Test and Kruskal-Wallis Nonparametric test (two tailed) followed by Dunn's Multiple comparison test. The ED50 (median effective dose) was calculated by using Probit analysis method.
Briefly, under ketamine-xylazine anesthesia (85 mg kg^−1, i.p and 13 mg kg^−1, i.p, respectively) rats were placed in a prone position and paraspinal muscles on the left were separated from the L4-S2 spinous processes. Part of the L6 transverse process was removed and the underlying L4-L6 spinal nerves were identified. The L5 and L6 spinal nerves were isolated, tightly ligated with 5-0 silk, and cut just distal to the ligature. The ligature was approximately 8 mm distal to the corresponding dorsal root ganglion (DRG). Following complete homeostasis the wound was sutured in layers, the skin closed with Michel clips, topical bacteriostatic power was applied, and 20000 units of duplo-penicillin was injected intramuscularly (i.m.).
We used a set of 9 nylon von Frey monofilaments (VFF, Semmes-Weinstein monofilaments, Stoelting, Wood Dale, Ill., USA) to quantify foot withdrawal in response to normally innocuous tactile stimuli. […] Forces were calibrated by lowering filaments onto the pan of an electronic balance until they just bent.
Rats were placed on a raised wire mesh screen (gaps 4 mm×4 mm), which allowed access to the plantar surface of the hindpaw from below. They were covered with a transparent plastic dome, 13 cm high, which prevented rearing on the hindlimbs. A period of 20 min was allowed for acclimation prior to sensory testing. The mid-plantar hindpaw skin just caudal to the footpads, half way between medial and lateral edges of the foot, was subjected to a series of 5 brief probes, spaced at about 1 s. Each such stimulus was sufficient to just bend the filament. Testing began with the filament with the weakest initial bending force (0.6 g). […] Response threshold was the bending force of the first monofilament in the series that evoked a criterion ≧⅗ responses.

[2] = system: maximal electroshock (MES) test; conditions: rat, in vivo, po; cited from earlier work
[3] = system: motor performance (rotarod test); assay: Neurological motor dysfunction tests (accelerating rotarod, observation for sedation); conditions: for motor performance, time to fall off the rotarod: n=6, vehicle 118.0±2.3; for effect on motor performance (rotarod test) compared to vehicle: highest doses tested (VPA 400, DID 90 mg kg^−1 i.p.), p>0.05, n=6; for neurological motor dysfunction or sedation at the highest drug dose tested: normal rats
Protocol: On the day of testing, a baseline response was obtained, and rats were subsequently administered drug or vehicle. […] In addition, we examined our rats individually for signs of motor dysfunction and sedation as assessed by posture and gate during spontaneous and induced movement, grooming, chewing, stepping reflex, and startle reflex evoked by tapping on the cage.
For each drug and dose, attenuation of tactile allodynia (threshold measured in g) was measured. […] These areas under the response curve values for every group of rats per dose were evaluated against vehicle treatment using the nonparametric Wilcoxon one tailed test (dose of drug tested vs. vehicle on the same treatment). […] A p value <0.05 was considered statistically significant.

[4] = system: neuropathic pain due to spinal cord injury; conditions: double-blind placebo-controlled trial; cited from earlier work

Row | SMILES | antiallodynic effect / effectiveness for treating neuropathic pain ([1]; rat, in vivo) | ED50 (tactile allodynia) ([1]; rat, in vivo, ip) [mg/kg] | SNL-ED50 ([1]; rat, in vivo, ip) [mg/kg] | dose dependence of the antiallodynic effect ([1]; rat, in vivo, ip) | lowest effective dose (significant increase of the allodynic threshold vs vehicle) ([1]; rat, in vivo, ip) [mg/kg] | rats with no response to 15 g or above VFF at the highest dose tested ([1]; rat, in vivo, ip) [%] | time of maximal effect after administration ([1]; rat, in vivo, ip) [min] | MES-ED50 [2] [mg/kg] | motor performance, time to fall off the rotarod ([3]; DID 90 mg kg^−1 i.p., 120 min after dosing) [s] | effect on motor performance (rotarod test) compared to vehicle [3] | neurological motor dysfunction or sedation at the highest drug dose tested [3] | pain relief versus placebo [4] | rats relieved from tactile allodynia at the highest dose tested ([1]; VPA 400 mg kg^−1 i.p.) [%] | dose dependence of the antiallodynic effect ([1]; i.p., rat) | lowest effective dose (significant increase of the allodynic threshold vs vehicle) ([1]; i.p., rat) [mg/kg] | time of maximal effect after administration ([1]; i.p., rat) [min] | ED50 (tactile allodynia) ([1]; i.p., rat, 60 min after dosing) [mg/kg] | SNL-ED50 ([1]; i.p., rat, 60 min post injection, DID at 120 min) [mg/kg] | ED50 ([1]; ip, 1 h, i.p., rat, 60 min after administration, protected = threshold of at least 15 g, read-out: ED50 (tactile allodynia threshold)) [mg/kg] | motor performance, time to fall off the rotarod ([3]; VPA 400 mg kg^−1 i.p., 60 min after dosing) [s]
1 | CC(C)C(C(N)=O)C(C)C [DID, diisopropylacetamide] | effective for treating neuropathic pain | 58 | 58 | dose-related antiallodynic activity | 20 | 63 | 120 | 51 | 103.8 ± 22.3 | no significant effect | not sufficient to cause neurological motor dysfunction or sedation | – | – | – | – | – | – | – | – | –
2 | CCCC(CCC)C(=O)O [VPA, Valproic acid, reference compound] | – | – | – | – | – | – | – | – | – | no significant effect | not sufficient to cause neurological motor dysfunction or sedation | no difference between VPA and placebo in relieving pain | 88 | in a dose dependent manner; also recorded: in a dose-dependent manner | 300 | 60 | 269 | 269 | 269 | 96.8 ± 23.7
